Experimental findings from article PMC11100771, “Structural basis of ligand specificity and channel activation in an insect gustatory receptor” (Cell reports, 2024) are described below.

As usually defined, the EC50 is the concentration that produces a half-maximal response.

The target of the experiment is T1, Bombyx mori Gr9 (BmGr9) (Bombyx mori, UniProt B3GTD7).
T1 construct: N-terminally Twin-Strep-tagged BmGr9, homotetramer
T1 sequence (B3GTD7 1-449): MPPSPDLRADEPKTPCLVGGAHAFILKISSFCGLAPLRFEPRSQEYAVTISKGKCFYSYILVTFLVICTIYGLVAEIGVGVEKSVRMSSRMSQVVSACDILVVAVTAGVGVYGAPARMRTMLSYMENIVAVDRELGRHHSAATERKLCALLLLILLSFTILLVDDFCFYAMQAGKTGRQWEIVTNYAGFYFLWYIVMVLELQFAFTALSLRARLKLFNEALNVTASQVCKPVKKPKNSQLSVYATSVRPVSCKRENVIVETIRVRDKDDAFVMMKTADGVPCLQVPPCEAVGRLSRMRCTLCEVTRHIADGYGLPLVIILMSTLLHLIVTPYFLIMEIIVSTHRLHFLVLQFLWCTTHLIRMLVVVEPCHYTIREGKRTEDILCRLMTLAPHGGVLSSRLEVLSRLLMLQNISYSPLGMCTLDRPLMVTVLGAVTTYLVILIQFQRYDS
Kind of experiment: cryo-EM structure ([…] Å) with […] D-fructose; EC50 by two-electrode voltage clamp in Xenopus oocytes. It counts as cell-based.

SMILES strings stand for the structures.

The compound `OCC1(O)OC[C@@H](O)[C@@H](O)[C@@H]1O` (stereo partly drawn) [D-fructose] displayed an EC50 of 22 mM.
